This series is described as follows: Hygroscopicity: weight gain and moisture induced phase transition in humidity-controlled desiccator. It counts as physicochemical. How it is done: Hygroscopicity of the compositions of invention were measured by placing approximately 20 to 50 mg of the sample in an uncapped scintillation vial. The vial was stored at ambient temperature in a Pyrex brand desiccator (VWR, International, West Chester, Pa.). The humidity within the desiccator was controlled at 55% relative humidity and 75% relative humidity using saturated aqueous solutions of […] and sodium chloride, respectively. The relative humidity was confirmed using a digital hygrometer pen (VWR International, West Chester, Pa.). The weight gain for all the samples was determined after 24 hours; it was not determined whether equilibrium was reached after that period. Visual observation of moisture induced phase transition was also noted.

The results in this text go back to patent publication US20150045366A1, “SPRAY DRIED FORMULATIONS” (Gilead Sciences, Inc., priority 2012, published 2015).

On to `CC(C)c1nc(CN(C)C(=O)N[C@@H](CCN2CCOCC2)C(=O)N[C@H](CC[C@H](Cc2ccccc2)NC(=O)OCc2cncs2)Cc2ccccc2)cs1` [Compound Free base, thiazol-5-ylmethyl (2R,5R)-5-((S)-2-(3-((2-isopropylthiazol-4-yl)methyl)-3-methylureido)-4-morpholinobutanamido)-1,6-diphenylhexan-2-ylcarbamate], for which the “Weight gain at 55% RH” value (55% relative humidity, ambient temperature, after 24 hours) came to 1.9%. Moreover, where the note is “75% relative humidity, ambient temperature, after 24 hours”, the “Weight gain at 75% RH” value is reported as 3.7%. For the same molecule, the “Phase transition (at 55% RH)” value (visual observation of moisture induced phase transition, 55% RH, 24 hours) is reported as “yes”. Besides, the “Phase transition (at 75% RH)” value (visual observation of moisture induced phase transition, 75% RH, 24 hours) is “yes”.
